Assay results reported in PubChem BioAssay (NCI).
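48-hour exposure; five concentrations; linearly interpolated endpoints. GI50: concentration for 50% inhibition of growth. TGI is the concentration that stops growth completely.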

How the values were obtained:
Assay in all cases: NCI anticancer screen, dose series, 48 h
[1] = system: 786-0 renal
[2] = system: ACHN renal
[3] = system: HCT-116 colon
[4] = system: HOP-92 NSCLC
[5] = system: HS 578T breast
[6] = system: HT29 colon
[7] = system: KM12 colon
[8] = system: MDA-MB-231 breast
[9] = system: OVCAR-4 ovarian
[10] = system: PC-3 prostate
[11] = system: RXF 393 renal
[12] = system: SF-268 CNS
[13] = system: SN12C renal
[14] = system: SR leukemia
[15] = system: SW-620 colon
[16] = system: T-47D breast
[17] = system: TK-10 renal
[18] = system: U251 CNS
[19] = system: SNB-19 CNS

SMILES	TGI [1] [µM]	TGI [2] [µM]	TGI [3] [µM]	TGI [4] [µM]	TGI [5] [µM]	TGI [6] [µM]	TGI [7] [µM]	TGI [8] [µM]	TGI [9] [µM]	TGI [10] [µM]	TGI [11] [µM]	TGI [12] [µM]	TGI [13] [µM]	TGI [14] [µM]	TGI [15] [µM]	TGI [16] [µM]	TGI [17] [µM]	TGI [18] [µM]	TGI [19] [µM]	GI50 [14] [µM]
Cc1ccc(-c2cc(=O)c(=O)[nH][nH]2)cc1	> 100	> 100	> 100	> 100	> 100	> 100	> 100	> 100	> 100	> 100	> 100	> 100	> 100	> 100	> 100	> 100	> 100	> 100	–	–
CCOC(=O)c1cc([N+](=O)[O-])c(Sc2ncnc3nc[nH]c23)c([N+](=O)[O-])c1	7.98	19.9	3.94	7.85	49.1	14.5	24.5	19.5	–	27.9	23.3	17.8	30.6	83.3	5.25	30	5.81	22.8	32.4	–
Cn1c(=O)c2c(=O)cc(N)[nH]c2n(C)c1=O	> 100	> 100	> 100	> 100	> 100	> 100	> 100	> 100	> 100	> 100	> 100	> 100	> 100	–	> 100	> 100	> 100	> 100	> 100	–
O=C1N[C@H](C(=O)O)[C@@H](c2ccc(OCc3ccccc3)cc2)O1	65.6	> 100	> 100	–	> 100	> 100	> 100	51.4	> 100	> 100	32.1	87.9	> 100	–	> 100	> 100	84.4	> 100	45	–
S=C1NNC2(C(=S)N1)c1ccccc1-c1ccccc12	> 10	–	–	> 10	> 10	> 10	> 10	> 10	> 10	–	–	> 10	> 10	> 10	> 10	> 10	> 10	> 10	–	–
Cc1cc(N=Cc2c(CO)cnc(C)c2O)c(N=Cc2c(CO)cnc(C)c2O)cc1C	> 100	> 100	> 100	–	> 100	> 100	> 100	> 100	> 100	> 100	> 100	> 100	> 100	> 100	> 100	> 100	> 100	> 100	> 100	41.2
O=CC1OC(=O)c2cc(O)c(O)c(O)c2-c2c(cc(O)c(O)c2O)C(=O)OC1C1OC(=O)c2cc(O)c(O)c(O)c2-c2c(O)c(O)c3oc(=O)c4c(c(O)c(O)c5oc(=O)c2c3c54)-c2c(cc(O)c(O)c2O)C(=O)OCC1O (centres undefined)	42.6	> 100	32.6	> 100	> 100	29.6	> 100	37	38.2	> 100	> 100	> 100	35.5	> 100	47.7	> 100	–	44.8	> 100	–
Cc1cc(=O)oc2c(C)c3oc(CBr)cc3cc12	32	29.8	39.4	–	> 100	79.9	42.1	84.7	65.1	35	–	51.5	42.2	> 100	30.2	60.8	89.6	47.1	> 100	–
C=CCOCn1cnc2c(=O)[nH]c(N)nc21	> 100	> 100	> 100	–	> 100	–	> 100	> 100	> 100	> 100	–	> 100	> 100	> 100	> 100	> 100	> 100	> 100	> 100	–
CN(/N=C/C=N/N(C)C1=NCCN1)C1=NCCN1	> 100	> 100	> 100	> 100	> 100	> 100	> 100	> 100	> 100	> 100	–	> 100	> 100	> 100	> 100	> 100	> 100	> 100	> 100	–
CC1CC(=O)Nc2ccccc2N1C(=O)C1CC1 (centres undefined)	> 100	> 100	> 100	> 100	> 100	> 100	> 100	> 100	> 100	> 100	> 100	> 100	> 100	–	> 100	> 100	> 100	> 100	> 100	–
O=C(Nc1ccc(F)cc1)c1cc2c(cc1Cl)Sc1nccn1S2(=O)=O	> 100	> 100	> 100	–	> 100	> 100	> 100	> 100	> 100	> 100	> 100	> 100	> 100	–	> 100	> 100	–	45.2	> 100	–
CC1(C)N([O-])[N+](=O)C1(C)O (centres undefined)	> 100	–	> 100	–	> 100	> 100	> 100	> 100	> 100	> 100	> 100	> 100	> 100	> 100	> 100	> 100	> 100	> 100	> 100	–
